Reference: ChEMBL document CHEMBL5257096, “Accelerating Drug Discovery: Synthesis of Complex Chemotypes via Multicomponent Reactions” (ACS Med Chem Lett, 2023)
pIC50: −log10 of the molar value.

Molecular target: Isocitrate dehydrogenase [NADP] cytoplasmic (Homo sapiens, UniProt O75874, R132H)
Test: Inhibition of IDH1 R132H mutant (unknown origin)

Chain of Isocitrate dehydrogenase [NADP] cytoplasmic (O75874 2-414 R132H limits assumed): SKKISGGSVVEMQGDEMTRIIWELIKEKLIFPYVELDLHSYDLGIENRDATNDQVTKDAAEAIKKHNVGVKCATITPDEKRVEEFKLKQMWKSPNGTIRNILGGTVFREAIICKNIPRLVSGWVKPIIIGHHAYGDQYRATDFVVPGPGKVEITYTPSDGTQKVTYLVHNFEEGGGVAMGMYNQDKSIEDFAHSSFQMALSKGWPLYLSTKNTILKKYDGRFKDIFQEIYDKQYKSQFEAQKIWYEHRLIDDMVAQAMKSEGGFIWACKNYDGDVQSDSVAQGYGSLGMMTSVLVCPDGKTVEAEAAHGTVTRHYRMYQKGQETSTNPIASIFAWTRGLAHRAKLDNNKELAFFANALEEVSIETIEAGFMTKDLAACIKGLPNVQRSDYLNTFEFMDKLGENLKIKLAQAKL

`O=C(NC1CCCCC1)[C@@H](c1ccccc1)N(C(=O)Cc1cccs1)c1cccc(F)c1` was tested, and the pIC50 was < 4.96.
